The source made the active and inactive calls. The calls are words filed in the database; no cut-off is given here.
Assays:
[1] = target: Ephrin type-A receptor 2 (Homo sapiens) (UniProt P29317); experiment: Inhibition of EPH-A2 (unknown origin) by Nano-syn mobility shift assay
[2] = target: Fibroblast growth factor receptor 1 (Homo sapiens) (UniProt P11362); experiment: Inhibition of FGFR1 (unknown origin) by Nano-syn mobility shift assay
[3] = target: Tyrosine-protein kinase Fgr (Homo sapiens) (UniProt P09769); experiment: Inhibition of FGR (unknown origin) by Nano-syn mobility shift assay
[4] = target: Fibroblast growth factor receptor 3 (Homo sapiens) (UniProt P22607); experiment: Inhibition of FGFR3 (unknown origin) by Nano-syn mobility shift assay
[5] = target: Tyrosine-protein kinase receptor UFO (Homo sapiens) (UniProt P30530); experiment: Inhibition of AXL (unknown origin) by Nano-syn mobility shift assay
[6] = target: Platelet-derived growth factor receptor alpha (Homo sapiens) (UniProt P16234); experiment: Inhibition of PDFGRA (unknown origin) by Nano-syn mobility shift assay; conditions: concentration not given here
[7] = target: Receptor-type tyrosine-protein kinase FLT3 (Homo sapiens) (UniProt P36888); experiment: Inhibition of FLT3 (unknown origin) by Nano-syn mobility shift assay; conditions: concentration not given here
[8] = target: High affinity nerve growth factor receptor (Homo sapiens) (UniProt P04629); experiment: Inhibition of NTRK1 (unknown origin) by Nano-syn mobility shift assay; conditions: concentration not given here
[9] = target: Tyrosine-protein kinase Lck (Homo sapiens) (UniProt P06239); experiment: Inhibition of LCK (unknown origin) by Nano-syn mobility shift assay; conditions: concentration not given here
BaF3 [10] = experiment: Cytotoxicity against mouse BaF3 cells stably expressing ABL wildtype assessed as cell growth inhibition incubated for 72 hrs by celltiter-glo luminescent cell viability assay; assay type: functional
BaF3 [11] = experiment: Cytotoxicity against mouse BaF3 cells stably expressing ABL-T315I mutant assessed as cell growth inhibition incubated for 72 hrs by celltiter-glo luminescent cell viability assay; assay type: functional
K562 = experiment: Cytotoxicity against human K562 cells assessed as cell growth inhibition incubated for 72 hrs by celltiter-glo luminescent cell viability assay; assay type: functional
[12] = target: Tyrosine-protein kinase ABL2 (Homo sapiens) (UniProt P42684); experiment: Inhibition of ABL2 (unknown origin) by Nano-syn mobility shift assay; conditions: concentration not given here
[13] = target: Angiopoietin-1 receptor (Homo sapiens) (UniProt Q02763); experiment: Inhibition of TEK (unknown origin) by Nano-syn mobility shift assay; conditions: concentration not given here
[14] = target: RAF proto-oncogene serine/threonine-protein kinase (Homo sapiens) (UniProt P04049); experiment: Inhibition of CRAF (unknown origin) by Nano-syn mobility shift assay
[15] = target: Vascular endothelial growth factor receptor 2 (Homo sapiens) (UniProt P35968); experiment: Inhibition of KDR (unknown origin) by Nano-syn mobility shift assay
[16] = target: Tyrosine-protein kinase ABL1 (Homo sapiens, UniProt P00519); experiment: Inhibition of NanoLuc-tagged ABL1 wild type (unknown origin) expressed in HEK293 cells by NanoBRET TE assay; assay type: cell-based
[17] = target: MAP kinase-interacting serine/threonine-protein kinase 2 (Homo sapiens) (UniProt Q9HBH9); experiment: Inhibition of MKNK2 (unknown origin) by Nano-syn mobility shift assay
[18] = target: MAP kinase-interacting serine/threonine-protein kinase 1 (Homo sapiens) (UniProt Q9BUB5); experiment: Inhibition of MKNK1 (unknown origin) by Nano-syn mobility shift assay
[19] = target: Mitogen-activated protein kinase 11 (Homo sapiens) (UniProt Q15759); experiment: Inhibition of MAPK11 (unknown origin) by Nano-syn mobility shift assay
[20] = target: Mitogen-activated protein kinase 14 (Homo sapiens) (UniProt Q16539); experiment: Inhibition of MAPK14 (unknown origin) by Nano-syn mobility shift assay
Homo sapiens [21] = organism: Homo sapiens; experiment: Inhibition of LYNB (unknown origin) by Nano-syn mobility shift assay; conditions: concentration not given here
[22] = target: Tyrosine-protein kinase receptor UFO (Homo sapiens, UniProt P30530); experiment: Inhibition of AXL (unknown origin) using peptide substrate in presence of ATP by radiometric HotSpot assay
Homo sapiens [23] = organism: Homo sapiens; experiment: Inhibition of LYNA (unknown origin) by Nano-syn mobility shift assay; conditions: concentration not given here
[24] = target: Platelet-derived growth factor receptor beta (Homo sapiens) (UniProt P09619); experiment: Inhibition of PDFGRB (unknown origin) by Nano-syn mobility shift assay
[25] = target: Muscle, skeletal receptor tyrosine-protein kinase (Homo sapiens) (UniProt O15146); experiment: Inhibition of MUSK (unknown origin) by Nano-syn mobility shift assay
[26] = target: Vascular endothelial growth factor receptor 3 (Homo sapiens) (UniProt P35916); experiment: Inhibition of FLT4 (unknown origin) by Nano-syn mobility shift assay
[27] = target: Vascular endothelial growth factor receptor 1 (Homo sapiens) (UniProt P17948); experiment: Inhibition of FLT1 (unknown origin) by Nano-syn mobility shift assay
[28] = target: Ephrin type-A receptor 8 (Homo sapiens) (UniProt P29322); experiment: Inhibition of EPH-A8 (unknown origin) by Nano-syn mobility shift assay
[29] = target: Discoidin domain-containing receptor 2 (Homo sapiens) (UniProt Q16832); experiment: Inhibition of DDR2 (unknown origin) by Nano-syn mobility shift assay
[30] = target: Proto-oncogene tyrosine-protein kinase receptor Ret (Homo sapiens) (UniProt P07949); experiment: Inhibition of RET (unknown origin) by Nano-syn mobility shift assay

Sequence of MAP kinase-interacting serine/threonine-protein kinase 1 (Homo sapiens) (Q9BUB5 whole entry, looked up): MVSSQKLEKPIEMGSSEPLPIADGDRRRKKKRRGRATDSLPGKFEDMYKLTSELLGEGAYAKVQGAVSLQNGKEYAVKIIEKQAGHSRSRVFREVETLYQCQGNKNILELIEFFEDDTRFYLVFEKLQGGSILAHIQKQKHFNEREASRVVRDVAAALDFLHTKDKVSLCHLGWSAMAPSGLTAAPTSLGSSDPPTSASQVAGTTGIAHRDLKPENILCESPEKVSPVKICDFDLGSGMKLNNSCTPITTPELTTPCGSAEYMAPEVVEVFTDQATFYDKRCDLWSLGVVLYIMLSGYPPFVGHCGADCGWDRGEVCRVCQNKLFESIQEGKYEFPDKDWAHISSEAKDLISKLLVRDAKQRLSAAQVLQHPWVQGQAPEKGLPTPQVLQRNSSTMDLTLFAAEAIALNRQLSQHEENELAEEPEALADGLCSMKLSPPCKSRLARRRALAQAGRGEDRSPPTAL
Sequence of High affinity nerve growth factor receptor (Homo sapiens) (P04629 33-796 limits assumed): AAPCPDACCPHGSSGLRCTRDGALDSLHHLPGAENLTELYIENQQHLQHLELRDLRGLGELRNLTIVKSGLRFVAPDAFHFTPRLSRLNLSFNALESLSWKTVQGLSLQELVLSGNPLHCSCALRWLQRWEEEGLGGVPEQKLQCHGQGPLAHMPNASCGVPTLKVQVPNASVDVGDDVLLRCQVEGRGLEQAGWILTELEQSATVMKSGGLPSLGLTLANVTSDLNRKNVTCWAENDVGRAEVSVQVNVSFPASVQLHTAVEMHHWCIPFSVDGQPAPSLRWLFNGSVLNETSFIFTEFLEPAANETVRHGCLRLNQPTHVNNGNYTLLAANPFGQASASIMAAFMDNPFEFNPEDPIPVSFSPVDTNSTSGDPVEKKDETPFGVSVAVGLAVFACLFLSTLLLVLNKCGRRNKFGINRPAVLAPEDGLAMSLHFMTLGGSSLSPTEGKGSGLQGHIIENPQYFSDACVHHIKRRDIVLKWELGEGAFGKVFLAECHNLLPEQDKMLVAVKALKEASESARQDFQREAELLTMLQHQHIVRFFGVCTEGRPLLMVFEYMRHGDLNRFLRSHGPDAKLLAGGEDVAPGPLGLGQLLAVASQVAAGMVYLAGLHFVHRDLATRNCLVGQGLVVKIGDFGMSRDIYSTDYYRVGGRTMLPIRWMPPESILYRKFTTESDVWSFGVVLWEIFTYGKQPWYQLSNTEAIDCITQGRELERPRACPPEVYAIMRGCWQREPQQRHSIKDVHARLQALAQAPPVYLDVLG
Sequence of MAP kinase-interacting serine/threonine-protein kinase 2 (Homo sapiens) (Q9HBH9 whole entry, looked up): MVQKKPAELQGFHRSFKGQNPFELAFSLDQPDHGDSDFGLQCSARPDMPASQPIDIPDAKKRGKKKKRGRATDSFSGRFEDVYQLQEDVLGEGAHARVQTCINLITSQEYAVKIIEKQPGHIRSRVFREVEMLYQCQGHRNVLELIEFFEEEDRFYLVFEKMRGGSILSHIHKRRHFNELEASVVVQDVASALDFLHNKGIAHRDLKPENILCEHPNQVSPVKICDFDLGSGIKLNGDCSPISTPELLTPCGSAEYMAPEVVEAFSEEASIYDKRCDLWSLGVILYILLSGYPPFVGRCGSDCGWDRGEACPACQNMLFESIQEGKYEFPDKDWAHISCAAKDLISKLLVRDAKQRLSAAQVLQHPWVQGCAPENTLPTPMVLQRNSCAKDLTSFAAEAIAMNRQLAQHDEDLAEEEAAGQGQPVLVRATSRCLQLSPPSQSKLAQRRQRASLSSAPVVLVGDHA
Sequence of Mitogen-activated protein kinase 14 (Homo sapiens) (Q16539 whole entry): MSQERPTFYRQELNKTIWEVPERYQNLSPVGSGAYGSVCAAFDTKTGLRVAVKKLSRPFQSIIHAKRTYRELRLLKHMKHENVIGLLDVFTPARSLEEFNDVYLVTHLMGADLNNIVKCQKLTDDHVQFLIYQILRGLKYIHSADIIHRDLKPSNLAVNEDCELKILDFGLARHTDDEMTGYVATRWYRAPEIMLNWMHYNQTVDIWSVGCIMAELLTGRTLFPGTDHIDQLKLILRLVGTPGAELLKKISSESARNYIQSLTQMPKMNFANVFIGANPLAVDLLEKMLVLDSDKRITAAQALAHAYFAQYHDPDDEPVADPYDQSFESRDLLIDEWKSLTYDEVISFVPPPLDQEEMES
Sequence of Vascular endothelial growth factor receptor 2 (Homo sapiens) (P35968 whole entry): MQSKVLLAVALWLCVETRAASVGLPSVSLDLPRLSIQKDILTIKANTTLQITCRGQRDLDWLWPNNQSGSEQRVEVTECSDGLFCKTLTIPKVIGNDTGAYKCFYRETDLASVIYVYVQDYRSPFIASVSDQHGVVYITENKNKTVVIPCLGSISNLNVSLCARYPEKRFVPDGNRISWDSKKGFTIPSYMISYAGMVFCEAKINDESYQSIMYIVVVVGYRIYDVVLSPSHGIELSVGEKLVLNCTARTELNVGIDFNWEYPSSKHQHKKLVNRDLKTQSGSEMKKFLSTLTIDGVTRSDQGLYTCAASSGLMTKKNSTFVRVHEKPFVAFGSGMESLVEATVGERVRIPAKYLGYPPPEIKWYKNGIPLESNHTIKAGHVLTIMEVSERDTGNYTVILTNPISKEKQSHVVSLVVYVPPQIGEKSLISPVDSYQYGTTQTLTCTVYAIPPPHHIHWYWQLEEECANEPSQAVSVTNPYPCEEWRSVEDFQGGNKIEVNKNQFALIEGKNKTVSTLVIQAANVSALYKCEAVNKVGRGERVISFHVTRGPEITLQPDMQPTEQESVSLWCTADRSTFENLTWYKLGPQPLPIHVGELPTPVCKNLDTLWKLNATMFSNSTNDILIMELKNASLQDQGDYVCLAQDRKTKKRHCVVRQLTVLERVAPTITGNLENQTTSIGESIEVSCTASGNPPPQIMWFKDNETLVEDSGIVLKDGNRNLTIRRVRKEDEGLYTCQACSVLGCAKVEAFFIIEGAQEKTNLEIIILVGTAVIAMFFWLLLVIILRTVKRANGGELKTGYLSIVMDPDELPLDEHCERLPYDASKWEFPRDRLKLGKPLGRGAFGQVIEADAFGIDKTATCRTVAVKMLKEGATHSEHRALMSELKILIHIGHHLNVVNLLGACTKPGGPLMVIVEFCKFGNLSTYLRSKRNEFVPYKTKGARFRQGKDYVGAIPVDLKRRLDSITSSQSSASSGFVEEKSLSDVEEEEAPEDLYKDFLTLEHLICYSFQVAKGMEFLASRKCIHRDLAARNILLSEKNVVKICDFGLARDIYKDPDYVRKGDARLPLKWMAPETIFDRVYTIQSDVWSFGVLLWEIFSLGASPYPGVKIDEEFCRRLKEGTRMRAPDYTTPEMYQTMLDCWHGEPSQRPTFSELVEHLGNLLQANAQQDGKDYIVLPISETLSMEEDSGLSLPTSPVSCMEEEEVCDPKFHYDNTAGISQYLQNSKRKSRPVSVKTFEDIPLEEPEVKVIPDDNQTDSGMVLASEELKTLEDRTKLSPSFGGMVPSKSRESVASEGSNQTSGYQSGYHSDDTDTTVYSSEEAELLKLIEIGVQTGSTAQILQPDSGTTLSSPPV
Sequence of Tyrosine-protein kinase Lck (Homo sapiens) (P06239 2-509 limits assumed): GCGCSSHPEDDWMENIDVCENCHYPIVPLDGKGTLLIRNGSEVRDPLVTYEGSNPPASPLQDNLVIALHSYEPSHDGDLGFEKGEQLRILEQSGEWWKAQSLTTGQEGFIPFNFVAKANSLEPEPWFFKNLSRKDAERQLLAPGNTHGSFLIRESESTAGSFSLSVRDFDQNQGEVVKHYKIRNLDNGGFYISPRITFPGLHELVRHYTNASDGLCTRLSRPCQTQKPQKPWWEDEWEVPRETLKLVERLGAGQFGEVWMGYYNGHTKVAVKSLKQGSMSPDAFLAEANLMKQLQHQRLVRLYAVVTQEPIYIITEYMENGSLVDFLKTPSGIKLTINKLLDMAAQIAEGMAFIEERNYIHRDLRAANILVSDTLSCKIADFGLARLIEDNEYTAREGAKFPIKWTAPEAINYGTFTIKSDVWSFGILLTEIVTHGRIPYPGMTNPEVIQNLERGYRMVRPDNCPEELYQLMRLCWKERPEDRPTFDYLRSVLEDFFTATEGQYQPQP
Sequence of Mitogen-activated protein kinase 11 (Homo sapiens) (Q15759 whole entry): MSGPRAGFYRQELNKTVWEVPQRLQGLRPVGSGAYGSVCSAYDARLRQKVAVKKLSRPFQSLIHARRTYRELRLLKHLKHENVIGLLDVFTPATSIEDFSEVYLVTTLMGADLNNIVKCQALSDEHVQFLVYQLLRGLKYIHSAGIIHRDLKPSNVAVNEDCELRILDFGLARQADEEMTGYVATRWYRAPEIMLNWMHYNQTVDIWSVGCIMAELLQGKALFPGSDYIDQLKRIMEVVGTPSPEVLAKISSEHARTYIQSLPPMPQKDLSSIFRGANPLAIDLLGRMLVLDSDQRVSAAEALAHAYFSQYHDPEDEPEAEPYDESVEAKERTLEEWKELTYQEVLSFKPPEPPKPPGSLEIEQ
Sequence of RAF proto-oncogene serine/threonine-protein kinase (Homo sapiens) (P04049 whole entry): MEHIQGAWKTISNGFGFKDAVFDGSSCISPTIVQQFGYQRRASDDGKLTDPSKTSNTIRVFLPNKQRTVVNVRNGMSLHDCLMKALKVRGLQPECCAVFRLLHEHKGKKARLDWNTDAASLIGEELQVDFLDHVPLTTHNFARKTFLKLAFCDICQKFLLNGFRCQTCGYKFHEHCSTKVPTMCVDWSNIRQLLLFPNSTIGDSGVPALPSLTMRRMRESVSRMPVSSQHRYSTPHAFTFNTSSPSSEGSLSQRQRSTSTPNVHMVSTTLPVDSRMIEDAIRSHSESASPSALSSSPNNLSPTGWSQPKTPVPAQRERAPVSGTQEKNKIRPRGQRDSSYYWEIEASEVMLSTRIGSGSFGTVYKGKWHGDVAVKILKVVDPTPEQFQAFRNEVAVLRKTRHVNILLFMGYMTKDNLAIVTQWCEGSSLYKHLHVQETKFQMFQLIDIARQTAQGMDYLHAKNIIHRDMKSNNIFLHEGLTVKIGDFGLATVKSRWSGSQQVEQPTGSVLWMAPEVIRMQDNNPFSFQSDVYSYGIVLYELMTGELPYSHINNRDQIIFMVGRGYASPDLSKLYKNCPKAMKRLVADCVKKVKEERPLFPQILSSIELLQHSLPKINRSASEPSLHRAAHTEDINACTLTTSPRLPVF

inhibition [1] | inhibition [2] | SMILES | inhibition [6] | inhibition [7] | inhibition [8] | inhibition [9] | GI50 (BaF3 [10]) | GI50 (BaF3 [11]) | GI50 (K562) | inhibition [12] | inhibition [13] | inhibition [14] | inhibition [15] | IC50 [16] | inhibition [17] | inhibition [18] | inhibition [19] | inhibition [20] | inhibition (Homo sapiens [21]) | inhibition (Homo sapiens [23]) | other results
Active | Active | CC(C)(C)c1cc(NC(=O)Nc2ccc(Oc3ccc4ncncc4c3)cc2)n(-c2ccc3ncccc3c2)n1 | > 50% | > 50% | > 50% | > 50% | 66 nM | 269 nM | 4 nM | > 50% | > 50% |  |  |  |  |  |  |  |  |  | inhibition [3]: Active; inhibition [4]: Active; inhibition [5]: Active
 |  | CC(C)(C)c1cc(NC(=O)Nc2ccc(Oc3ccc4cccnc4c3)cc2)n(-c2ccc3ncccc3c2)n1 |  |  |  |  | > 5000 nM | > 10000 nM | 239 nM |  |  | Active | Active | 719 nM |  |  |  |  |  |  | 
 |  | CN1CCN(Cc2ccc(NC(=O)Nc3ccc(Oc4ccc5cccnc5c4)cc3)cc2C(F)(F)F)CC1 |  |  |  |  | > 10000 nM | > 10000 nM | 451 nM |  |  | Active | Active | 637 nM | Active | Active | Active | Active |  |  | 
 |  | CC(C)(C)c1cc(NC(=O)Nc2ccc(Oc3ccc4ncccc4c3)cc2)n(-c2ccc3ncccc3c2)n1 | > 50% | > 50% | > 50% | > 50% | 164 nM | 801 nM | 13 nM | > 50% | > 50% | Active | Active | 345 nM |  |  |  |  | > 50% | > 50% | inhibition [4]: Active; inhibition [5]: Active; IC50 [22]: 12 nM
 |  | CN1CCN(Cc2ccc(NC(=O)Nc3ccc(Oc4ccc5ncccc5c4)cc3)cc2C(F)(F)F)CC1 | > 50% | > 50% | > 50% | > 50% | 36 nM | 162 nM | 6.9 nM | > 50% | > 50% | Active | Active | 38.3 nM | Active | Active | Active | Active | > 50% | > 50% | inhibition [24]: Active; inhibition [25]: Active; inhibition [26]: Active; inhibition [27]: Active; inhibition [28]: Active; inhibition [29]: Active; inhibition [30]: Active
Active | Active | CN1CCN(Cc2ccc(NC(=O)Nc3ccc(Oc4ccc5ncncc5c4)cc3)cc2C(F)(F)F)CC1 | > 50% | > 50% | > 50% | > 50% | 83 nM | 117 nM | 2.3 nM | > 50% | > 50% |  |  | 15.7 nM | Active | Active | Active | Active | > 50% | > 50% | inhibition [3]: Active
